The record followed here is ChEMBL document CHEMBL4330132, “5-Keto-3-cyano-2,4-diaminothiophenes as selective maternal embryonic leucine zipper kinase inhibitors” (Bioorg Med Chem Lett, 2019).

Assay [1] concerns the target Activin receptor type-2B (Homo sapiens) (UniProt Q13705). Briefly: Binding affinity to wild-type human ACVR2B (H169 to D504 residues) expressed in bacterial expression system assessed as residual binding level at 1 uM by Kinomescan method relative to control.
For assay [2], the target named is RAC-beta serine/threonine-protein kinase (Homo sapiens) (UniProt P31751). Briefly: Binding affinity to wild-type human partial length AKT2 expressed in bacterial expression system assessed as residual binding level at 1 uM by Kinomescan method relative to control.
Chain of RAC-beta serine/threonine-protein kinase (Homo sapiens) (P31751 whole entry, the tested form may be a part): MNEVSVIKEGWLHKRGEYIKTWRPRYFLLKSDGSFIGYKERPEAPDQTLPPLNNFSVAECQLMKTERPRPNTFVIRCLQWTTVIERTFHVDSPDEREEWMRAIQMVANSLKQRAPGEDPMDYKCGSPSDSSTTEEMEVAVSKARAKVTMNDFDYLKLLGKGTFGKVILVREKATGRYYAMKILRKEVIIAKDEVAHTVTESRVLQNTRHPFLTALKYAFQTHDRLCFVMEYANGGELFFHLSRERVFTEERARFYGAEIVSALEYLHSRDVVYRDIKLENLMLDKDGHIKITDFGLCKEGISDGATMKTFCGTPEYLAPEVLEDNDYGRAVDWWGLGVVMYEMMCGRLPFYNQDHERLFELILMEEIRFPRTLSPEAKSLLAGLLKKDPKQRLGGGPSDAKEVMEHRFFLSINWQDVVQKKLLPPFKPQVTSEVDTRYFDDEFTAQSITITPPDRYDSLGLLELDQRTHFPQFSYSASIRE
Assay [3] has as its target Dual specificity protein kinase CLK2 (Homo sapiens) (UniProt P49760). Briefly: Binding affinity to wild-type human partial length CLK2 (D144 to R498 residues) expressed in bacterial expression system assessed as residual binding level at 1 uM by Kinomescan method relative to control.
The target of assay [4] is Casein kinase I isoform gamma-2 (Homo sapiens) (UniProt P78368). Nature of the assay: Binding affinity to wild-type human full length CSNK1G2 (M1 to K415 residues) expressed in bacterial expression system assessed as residual binding level at 1 uM by Kinomescan method relative to control.
The subject of assay [5] is Epidermal growth factor receptor (Homo sapiens), P00533 [UNDEFINED MUTATION]. Nature of the assay: Binding affinity to human partial length EGFR L747-E749del/A750P mutant expressed in bacterial expression system assessed as residual binding level at 1 uM by Kinomescan method relative to control.
For assay [6], the target named is Ephrin type-A receptor 8 (Homo sapiens) (UniProt P29322). Briefly: Binding affinity to wild-type human partial length EPHA8 (Q608 to C920 residues) expressed in bacterial expression system assessed as residual binding level at 1 uM by Kinomescan method relative to control.
In assay [7] the target is G protein-coupled receptor kinase 4 (Homo sapiens) (UniProt P32298). Nature of the assay: Binding affinity to wild-type human full length GRK4 (M1 to C578 residues) expressed in bacterial expression system assessed as residual binding level at 1 uM by Kinomescan method relative to control.
The target in assay [8] is Homeodomain-interacting protein kinase 2 (Homo sapiens) (UniProt Q9H2X6). Briefly: Binding affinity to wild-type human partial length HIPK2 (M153 to S564 residues) expressed in mammalian expression system assessed as residual binding level at 1 uM by Kinomescan method relative to control.
Chain of Homeodomain-interacting protein kinase 2 (Homo sapiens) (Q9H2X6 whole entry, looked up, the tested form may be a part): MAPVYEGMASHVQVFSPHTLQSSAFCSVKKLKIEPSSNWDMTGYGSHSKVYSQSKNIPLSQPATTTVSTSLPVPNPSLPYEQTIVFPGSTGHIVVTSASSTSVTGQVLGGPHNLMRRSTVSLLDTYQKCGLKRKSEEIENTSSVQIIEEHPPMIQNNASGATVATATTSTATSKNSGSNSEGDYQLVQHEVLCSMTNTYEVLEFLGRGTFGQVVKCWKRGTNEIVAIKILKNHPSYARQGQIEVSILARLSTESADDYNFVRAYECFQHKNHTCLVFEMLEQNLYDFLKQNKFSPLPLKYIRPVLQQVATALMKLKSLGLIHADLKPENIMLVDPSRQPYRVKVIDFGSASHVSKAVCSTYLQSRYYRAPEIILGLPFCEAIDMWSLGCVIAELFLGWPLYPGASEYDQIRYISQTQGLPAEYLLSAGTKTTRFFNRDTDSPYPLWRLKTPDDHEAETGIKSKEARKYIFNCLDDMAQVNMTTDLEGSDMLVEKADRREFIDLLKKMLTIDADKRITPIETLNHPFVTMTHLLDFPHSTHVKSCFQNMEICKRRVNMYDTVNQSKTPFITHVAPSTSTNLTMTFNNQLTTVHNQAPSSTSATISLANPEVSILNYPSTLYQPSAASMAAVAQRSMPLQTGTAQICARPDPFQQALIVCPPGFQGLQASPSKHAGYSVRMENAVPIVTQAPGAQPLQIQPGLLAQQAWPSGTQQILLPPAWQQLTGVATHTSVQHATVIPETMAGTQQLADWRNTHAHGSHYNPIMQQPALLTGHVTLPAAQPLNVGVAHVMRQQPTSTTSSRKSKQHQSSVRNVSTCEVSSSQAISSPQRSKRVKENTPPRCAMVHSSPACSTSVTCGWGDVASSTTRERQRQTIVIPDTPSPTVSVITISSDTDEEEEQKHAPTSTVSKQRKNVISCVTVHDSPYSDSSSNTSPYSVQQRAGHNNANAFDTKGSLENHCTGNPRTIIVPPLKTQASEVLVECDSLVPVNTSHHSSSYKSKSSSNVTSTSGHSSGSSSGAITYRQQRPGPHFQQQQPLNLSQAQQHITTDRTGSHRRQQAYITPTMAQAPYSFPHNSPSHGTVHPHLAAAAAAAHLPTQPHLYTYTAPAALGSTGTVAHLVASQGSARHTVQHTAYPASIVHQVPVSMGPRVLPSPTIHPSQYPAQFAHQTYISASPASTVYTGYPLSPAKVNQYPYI
Assay [9] concerns the target Inhibitor of nuclear factor kappa-B kinase subunit beta (Homo sapiens) (UniProt O14920). Briefly: Binding affinity to wild-type human full length IKK-beta (M1 to S756 residues) expressed in mammalian expression system assessed as residual binding level at 1 uM by Kinomescan method relative to control.
In assay [10] the target is Insulin receptor-related protein (Homo sapiens) (UniProt P14616). Nature of the assay: Binding affinity to wild-type human partial length INSRR (R950 to E1278 residues) expressed in bacterial expression system assessed as residual binding level at 1 uM by Kinomescan method relative to control.
In assay [11] the target is Mast/stem cell growth factor receptor Kit (Homo sapiens) (UniProt P10721). Briefly: Binding affinity to wild-type human partial length KIT (I571 to D952 residues) expressed in bacterial expression system assessed as residual binding level at 1 uM by Kinomescan method relative to control.
The subject of assay [12] is Mast/stem cell growth factor receptor Kit (Homo sapiens), P10721 [V559D,T670I]. Briefly: Binding affinity to human partial length KIT V559D/T670I double mutant (Y545 to D952 residues) expressed in bacterial expression system assessed as residual binding level at 1 uM by Kinomescan method relative to control.
Assay [13] concerns the target Mitogen-activated protein kinase kinase kinase 3 (Homo sapiens) (UniProt Q99759). Briefly: Binding affinity to wild-type human partial length MAP3K3 (E320 to Y626 residues) expressed in mammalian expression system assessed as residual binding level at 1 uM by Kinomescan method relative to control.
For assay [14], the target named is MAP kinase-activated protein kinase 2 (Homo sapiens) (UniProt P49137). Briefly: Binding affinity to wild-type human partial length MAPKAPK2 (V48 to D345 residues) expressed in bacterial expression system assessed as residual binding level at 1 uM by Kinomescan method relative to control.
Chain of MAP kinase-activated protein kinase 2 (Homo sapiens) (P49137 whole entry, looked up, the tested form may be a part): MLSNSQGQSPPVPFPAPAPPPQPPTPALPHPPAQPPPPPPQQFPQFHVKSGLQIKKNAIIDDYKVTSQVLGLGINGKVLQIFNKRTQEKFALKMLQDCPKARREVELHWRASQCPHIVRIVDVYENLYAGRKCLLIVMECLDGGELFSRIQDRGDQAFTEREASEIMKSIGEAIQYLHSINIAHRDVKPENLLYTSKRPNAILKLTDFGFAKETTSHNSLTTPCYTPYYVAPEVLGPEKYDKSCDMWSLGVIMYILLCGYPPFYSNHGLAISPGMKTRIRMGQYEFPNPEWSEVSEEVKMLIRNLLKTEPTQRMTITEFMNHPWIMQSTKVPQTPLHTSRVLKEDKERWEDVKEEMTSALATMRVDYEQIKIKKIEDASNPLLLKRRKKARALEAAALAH
Assay [15] has as its system Hepatocyte growth factor receptor (Homo sapiens), P08581 [Y1235D]. Briefly: Binding affinity to human partial length MET Y1235D mutant (D1010 to S1367 residues) expressed in bacterial expression system assessed as residual binding level at 1 uM by Kinomescan method relative to control.
Assay [16] addresses Myosin light chain kinase (Homo sapiens) (UniProt Q32MK0). Briefly: Binding affinity to wild-type human partial length MLCK (D488 to K800 residues) expressed in bacterial expression system assessed as residual binding level at 1 uM by Kinomescan method relative to control.
The target in assay [17] is Serine/threonine-protein kinase 3 (Homo sapiens) (UniProt Q13188). Briefly: Binding affinity to wild-type human partial length MST2 (D17 to E318 residues) expressed in bacterial expression system assessed as residual binding level at 1 uM by Kinomescan method relative to control.
Chain of Serine/threonine-protein kinase 3 (Homo sapiens) (Q13188 whole entry, the tested form may be a part): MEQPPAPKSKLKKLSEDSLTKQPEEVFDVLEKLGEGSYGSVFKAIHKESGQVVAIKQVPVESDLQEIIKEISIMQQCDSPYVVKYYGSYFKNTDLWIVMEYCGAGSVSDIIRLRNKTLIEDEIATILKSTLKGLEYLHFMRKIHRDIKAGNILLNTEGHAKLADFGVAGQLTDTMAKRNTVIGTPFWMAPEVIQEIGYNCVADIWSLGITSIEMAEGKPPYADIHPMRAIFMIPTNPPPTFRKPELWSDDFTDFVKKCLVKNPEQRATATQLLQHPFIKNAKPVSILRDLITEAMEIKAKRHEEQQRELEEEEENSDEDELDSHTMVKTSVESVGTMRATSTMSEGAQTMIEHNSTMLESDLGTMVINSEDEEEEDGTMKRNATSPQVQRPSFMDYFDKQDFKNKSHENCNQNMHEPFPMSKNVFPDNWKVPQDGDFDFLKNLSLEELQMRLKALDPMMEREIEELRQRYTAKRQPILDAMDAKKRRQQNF
For assay [18], the target named is Myosin light chain kinase 2, skeletal/cardiac muscle (Homo sapiens) (UniProt Q9H1R3). Nature of the assay: Binding affinity to wild-type human partial length MYLK2 (D258 to K570 residues) expressed in bacterial expression system assessed as residual binding level at 1 uM by Kinomescan method relative to control.
For assay [19], the target named is cAMP-dependent protein kinase catalytic subunit alpha (Homo sapiens) (UniProt P17612). Nature of the assay: Binding affinity to wild-type human partial length PKAC-alpha (G10 to F351 residues) expressed in bacterial expression system assessed as residual binding level at 1 uM by Kinomescan method relative to control.
Assay [20] deals with Serine/threonine-protein kinase N1 (Homo sapiens) (UniProt Q16512). Nature of the assay: Binding affinity to wild-type human partial length PKN1 (E598 to C948 residues) expressed in bacterial expression system assessed as residual binding level at 1 uM by Kinomescan method relative to control.
Chain of Serine/threonine-protein kinase N1 (Homo sapiens) (Q16512 2-942 limits assumed): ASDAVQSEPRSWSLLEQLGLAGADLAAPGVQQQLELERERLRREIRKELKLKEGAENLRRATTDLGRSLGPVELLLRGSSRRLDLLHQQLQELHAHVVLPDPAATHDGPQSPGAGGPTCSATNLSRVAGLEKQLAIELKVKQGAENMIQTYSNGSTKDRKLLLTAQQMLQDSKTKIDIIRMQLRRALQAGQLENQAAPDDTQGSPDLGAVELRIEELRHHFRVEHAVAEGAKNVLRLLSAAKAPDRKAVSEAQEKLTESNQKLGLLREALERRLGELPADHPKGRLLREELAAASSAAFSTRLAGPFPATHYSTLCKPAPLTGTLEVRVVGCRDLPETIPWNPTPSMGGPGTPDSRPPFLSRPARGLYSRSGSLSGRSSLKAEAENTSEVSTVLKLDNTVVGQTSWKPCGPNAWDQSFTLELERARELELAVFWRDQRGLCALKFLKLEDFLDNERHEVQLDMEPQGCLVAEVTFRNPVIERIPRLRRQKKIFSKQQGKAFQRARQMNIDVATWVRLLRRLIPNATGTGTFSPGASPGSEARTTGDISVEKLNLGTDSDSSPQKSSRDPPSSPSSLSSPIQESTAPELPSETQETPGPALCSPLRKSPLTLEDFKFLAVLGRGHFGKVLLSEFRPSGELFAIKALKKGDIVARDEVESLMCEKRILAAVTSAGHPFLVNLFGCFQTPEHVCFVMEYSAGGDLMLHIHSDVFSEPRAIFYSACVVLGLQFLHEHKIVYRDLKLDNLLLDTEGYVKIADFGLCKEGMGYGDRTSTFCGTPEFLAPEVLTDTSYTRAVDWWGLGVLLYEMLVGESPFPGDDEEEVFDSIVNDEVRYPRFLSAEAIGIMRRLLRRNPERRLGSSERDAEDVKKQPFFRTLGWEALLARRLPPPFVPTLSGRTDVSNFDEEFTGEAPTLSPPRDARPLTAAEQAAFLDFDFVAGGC
Assay [21] concerns the target Receptor-interacting serine/threonine-protein kinase 2 (Homo sapiens) (UniProt O43353). Briefly: Binding affinity to wild-type human partial length RIPK2 (M1 to K310 residues) expressed in bacterial expression system assessed as residual binding level at 1 uM by Kinomescan method relative to control.
Assay [22] deals with Ribosomal protein S6 kinase alpha-4 (Homo sapiens) (UniProt O75676). Briefly: Binding affinity to wild-type human partial length C-terminal RPS6KA4 kinase domain 2 (M375 to T705 residues) expressed in mammalian expression system assessed as residual binding level at 1 uM by Kinomescan method relative to control.
Assay [23] concerns the target Serine/threonine-protein kinase 33 (Homo sapiens) (UniProt Q9BYT3). Briefly: Binding affinity to wild-type human full length STK33 (M1 to L514 residues) expressed in bacterial expression system assessed as residual binding level at 1 uM by Kinomescan method relative to control.
Assay [24] addresses Serine/threonine-protein kinase ULK1 (Homo sapiens) (UniProt O75385). Briefly: Binding affinity to wild-type human partial length ULK1 (M1 to T309 residues) expressed in mammalian expression system assessed as residual binding level at 1 uM by Kinomescan method relative to control.

SMILES strings stand for the structures.

Chain of Epidermal growth factor receptor (Homo sapiens), P00533 [UNDEFINED MUTATION] (P00533 whole entry, looked up, stated change not applied, the tested form may be a part): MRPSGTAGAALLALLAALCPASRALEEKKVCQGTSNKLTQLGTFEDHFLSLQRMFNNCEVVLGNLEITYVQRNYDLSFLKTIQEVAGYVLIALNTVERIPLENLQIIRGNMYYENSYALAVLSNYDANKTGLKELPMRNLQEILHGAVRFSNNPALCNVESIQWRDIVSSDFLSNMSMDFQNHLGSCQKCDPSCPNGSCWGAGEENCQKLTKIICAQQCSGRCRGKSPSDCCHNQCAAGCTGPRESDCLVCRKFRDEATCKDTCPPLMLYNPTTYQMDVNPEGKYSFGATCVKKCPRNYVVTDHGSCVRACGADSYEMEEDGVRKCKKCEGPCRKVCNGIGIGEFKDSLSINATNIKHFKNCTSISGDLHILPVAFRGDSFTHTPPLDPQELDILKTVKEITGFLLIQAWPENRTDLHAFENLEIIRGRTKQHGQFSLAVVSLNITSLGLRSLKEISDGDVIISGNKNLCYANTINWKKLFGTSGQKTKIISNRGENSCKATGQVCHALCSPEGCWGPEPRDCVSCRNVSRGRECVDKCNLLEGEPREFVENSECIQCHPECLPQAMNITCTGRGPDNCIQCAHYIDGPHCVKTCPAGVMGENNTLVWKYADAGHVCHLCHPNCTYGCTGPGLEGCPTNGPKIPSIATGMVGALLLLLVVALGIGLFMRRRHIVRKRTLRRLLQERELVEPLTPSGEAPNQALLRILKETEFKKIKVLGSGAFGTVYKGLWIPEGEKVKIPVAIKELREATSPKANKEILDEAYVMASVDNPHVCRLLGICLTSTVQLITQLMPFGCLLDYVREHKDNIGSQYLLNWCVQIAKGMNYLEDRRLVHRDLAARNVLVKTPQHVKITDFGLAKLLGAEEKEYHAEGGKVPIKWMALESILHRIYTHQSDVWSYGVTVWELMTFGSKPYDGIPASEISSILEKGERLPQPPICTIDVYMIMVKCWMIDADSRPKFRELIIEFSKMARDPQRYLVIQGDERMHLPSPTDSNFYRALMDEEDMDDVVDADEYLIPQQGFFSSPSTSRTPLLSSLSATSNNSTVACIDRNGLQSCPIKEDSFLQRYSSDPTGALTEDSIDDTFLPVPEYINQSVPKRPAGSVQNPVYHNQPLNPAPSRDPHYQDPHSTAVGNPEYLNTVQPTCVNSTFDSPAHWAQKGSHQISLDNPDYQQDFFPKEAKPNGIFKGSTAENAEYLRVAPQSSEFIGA

For the compound `CC(C)Nc1sc(C(=O)c2ccc(Cl)s2)c(N)c1C#N`, the Activity in assay [1] was found to be 92%; in [2] it was 93%; in [3], 60%; in assay [4] it was 74%; in assay [5] it was 80%; in [6] it was 86%. For the same compound, the Activity in assay [7] is 74%; in [8], 94%; in assay [9], 100%; in assay [10], 76%; in [11] it was 76%; in assay [12], 87%. For the same compound, the Activity in assay [13] turned out to be 100%; in assay [14] it was 83%; in assay [15], 73%; in assay [16], 71%; in assay [17], 82%; in assay [18], 81%. In addition, the Activity in [19] is 85%; in assay [20], 56%; in assay [21] it was 82%; in assay [22] it was 79%; in assay [23], 57%; in assay [24], 92%.
